Test results reported in US10130677B2, “Antimicrobial peptide and uses thereof” (priority 2013, dated 2018).
Read-outs that look alike come from different tables or passages of the source.

What was measured:
[1] = tested on: S. aureus JAR060131 biofilm formation; type: cell-based, Staphylococcus aureus
Procedure: After solubilization with ethanol, the optical density at 590 nm is determined as a measure of biofilm mass.
Peptides were incubated with 1×10^8 CFU/ml of S. aureus JAR060131 in biofilm-adjusted BM2 in 96-wells polypropylene plates as described in Antimicrob Agents Chemother 2012; 56: 2696-2704. After 24 hours incubation at 37° C., planktonic bacteria were removed by four washes with PBS and biofilms were stained with crystal violet. After solubilization with ethanol, the optical density at 590 nm was determined as a measure of biofilm mass.
To assess the antibiofilm activity of the peptides in the presence of plasma, 96-wells polypropylene plates were coated with plasma by overnight incubation with 20% plasma at 4° C. Wells were washed once with sterile water and inoculated with S. aureus and peptides as described above.

[2] = tested on: LTA (S. aureus)-induced IL-8 production; test: LTA neutralization in whole human blood; type: cell-based; settings: LTA-induced IL-8; blood from one donor
Text: (§1) The term “anti-inflammatory activity” of a polypeptide as used herein refers to inhibiting, reducing or preventing an inflammatory response in a subject that has been infected by microbes, e.g. bacteria, viruses, fungi, and/or parasites. Anti-inflammatory activity of polypeptides of the invention is achieved by inhibiting, reducing or preventing the release of pro-inflammatory microbial compounds, such as lipoteichoic acid (LTA), peptidoglycan (PG) and/or lipopolysaccharides (LPS). Anti-inflammatory activity can be measured by methods known in the art. Examples of such method are a LPS neutralization assay and a LTA neutralization assay as described in the Examples of this application. In such method, a polypeptide of the invention is mixed with a fixed concentration of LPS or LTA, such as 500 ng/ml LPS or 2 mg/ml LTA, and incubated for 30 min. Thereafter, these mixtures were added to diluted fresh human whole blood and 20 hours thereafter the level of cytokines (e.g. 1L-8 for LTA and 1L-12p40 for LPS) in the blood sample are measured by ELISA.
(§2) Peptides were pre-incubated with 500 ng/ml LPS (E. coli 054) or 2 mg/ml LTA (S. aureus, endotoxin-free) or 1×10^9 CFU/ml of UV-killed S. aureus JAR060131 for 30 min at 37° C. Diluted whole human blood was stimulated with the peptide-LPS/LTA/S. aureus mixtures for 20 hours at 37° C. IL-12p40 and IL-8 levels in supernatants were determined using ELISA.

[3] = tested on: UV-killed S. aureus JAR060131-induced IL-8 production; test: S. aureus neutralization in whole human blood; type: cell-based; settings: UV-killed S. aureus JAR060131-induced IL-8; blood from one donor
Procedure: as §2

bacteria = type: cell-based
Text: The currently known AMPs, including OP-145, still have a few drawbacks. For instance, various bacteria, such as P. aeruginosa, E. faecalis, Proteus mirabilis, Streptococcus pyogenes and S. aureus all secrete proteases that degrade several antimicrobial peptides, such as the cathelicidin LL-37. Thus, protease resistant antimicrobial peptides are advantageous from a therapeutical standpoint. Furthermore, due to potential lytic effect as well as other properties of AMPs against bacterial but also mammalian membranes, one of the challenges in designing new peptides relies on developing AMPs with high specificity against microorganisms such as bacterial or fungal cells as compared to cellular membranes of the infected patient, i.e., a high therapeutic index (minimal hemolytic concentration/minimal antimicrobial activity; MHC/MEC). Another important disadvantage of known AMPs, including OP-145, is that its activity is strongly affected by the presence of plasma components. For instance, for OP-145 the LC99.9 (the lowest peptide concentration which kills ≥99.9% of bacteria) in PBS of 1.6 μM, whereas the LC99.9 in PBS/plasma (1:1) is about 200 μM. This is in particular a disadvantage for systemically administered AMPs.

A. niger PagsA-lux = test: Effect on fungal growth; type: cell-based, Aspergillus niger
Procedure: The effect of the peptides on fungal growth was assessed using Aspergillus niger. Peptides were incubated with 7.5×10^4 spores/ml of A. niger PagsA-lux in PBS without or with addition of pooled human plasma at a final concentration of 25%. As positive control, spores were treated with the antifungal caspofungin (Cancidas). Absorbance was measured over time and at 16 hours, fungal growth was visualized using light microscopy.

Candida albicans Y-O1 = type: cell-based
Procedure: Peptides were incubated with 1×10^5 cells/ml of a mid-logarithmic culture of Candida albicans Y-O1, without or with addition of pooled human plasma at a final concentration of 50%. Antimicrobial activity is expressed as the 99% lethal concentration (LC99), i.e., the lowest peptide concentration at which ≥99% of cells were killed after 2 hours of incubation at 37° C. under shaking conditions.

[4] = tested on: LPS (E. coli 054)-induced IL-12p40 production; test: LPS neutralization in whole human blood; type: cell-based
Text: as §1, §2

Substance: Ac-IGKEFKRIVERIKRFLRELVRPLR-NH2 [OP-145, JIGKEFKRIVERIKRFLRELVRPLRB, reference compound]
- IC50 ([1]; JAR060131 biofilm formation, 24 h): 3200 nM
- IC50 ([1]; plasma-coated wells (FIG. 3B), read-out: concentration inhibiting biofilm formation for 50%): 3200 nM
- IC50 [2]: 0.781 µM
- IC50 [3]: 0.195 µM
- LC99.9 (bacteria; PBS): 1.6 µM
- LC99.9 (bacteria; PBS/plasma (1:1)): about 200 μM
- concentration inhibiting A. niger growth (A. niger PagsA-lux; 25% plasma, light micrographs only, 16 hours (FIG. 2)): 204.8 µM
- concentration inhibiting A. niger growth (by >99.9%) (A. niger PagsA-lux; PBS, optical density (FIG. 1)): 3.2 µM
- antifungal activity against C. albicans Y-O1 (in words) (Candida albicans Y-O1; 50% plasma, at 204.8 μM): no antifungal activity was observed
- LC99 (Candida albicans Y-O1; 50% plasma, mean of two experiments): >204.8 µM
- antifungal activity against C. albicans Y-O1 (in words) (Candida albicans Y-O1; PBS, at 51.2 μM): no antifungal activity
- LC99 (Candida albicans Y-O1; Y-O1, 2 h): >51.2 µM
- IC90 ([4]; LPS-induced IL-12p40, blood from two donors): 1.25 nM
- IC50 ([4]; diluted whole human blood, 20 hours): 0.15 nM
